Here are results for one substance from ChEMBL document CHEMBL1150501 (Bioorg Med Chem Lett, 1995).

The target in this assay is Glucagon receptor (Rattus norvegicus, UniProt P30082). Description: pA2 value towards glucagon receptor relative to glucagon was calculated.
Chain of Glucagon receptor (P30082 whole entry): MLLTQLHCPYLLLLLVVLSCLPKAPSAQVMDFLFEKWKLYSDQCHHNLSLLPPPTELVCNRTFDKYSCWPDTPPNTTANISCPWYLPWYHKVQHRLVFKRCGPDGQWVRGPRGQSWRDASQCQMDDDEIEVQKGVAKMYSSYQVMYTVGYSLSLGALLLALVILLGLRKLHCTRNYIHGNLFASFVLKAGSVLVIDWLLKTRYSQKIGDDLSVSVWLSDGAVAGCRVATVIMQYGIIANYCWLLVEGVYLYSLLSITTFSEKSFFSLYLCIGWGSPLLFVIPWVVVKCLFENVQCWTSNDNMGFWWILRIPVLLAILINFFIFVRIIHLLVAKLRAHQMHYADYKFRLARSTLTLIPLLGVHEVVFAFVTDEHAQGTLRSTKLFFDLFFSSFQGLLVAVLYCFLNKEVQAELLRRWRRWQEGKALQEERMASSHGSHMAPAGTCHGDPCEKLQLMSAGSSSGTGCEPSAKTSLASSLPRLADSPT

With H-SQGTTSEYSKYLDSRRAQDFVQWLMNT-NH2, the Kb was 6.31 nM.
